Columns and labels:
[1] = in vivo
[2] = design: method as in NormOxys phase I clinical trial; settings: ref NormOxys phase I clinical trial, cited from earlier work

What does the source list for `O=P1(O)OC2C3OP(=O)(O)OP(=O)(O)OC3C3OP(=O)(O)OP(=O)(O)OC3C2OP(=O)(O)O1` (centres unmarked) [ITPP, Myo-inositol trispyrophosphate]?
Time of peak plasma levels (Cmax) after infusion start ([1]; human): 6 h; ITPP baseline levels at infusion start (Cmin) [1]: below the detection threshold; Subjects with treatment-emerged adverse effects (TEAEs) ([2]; ITPP-treated group, 750 to 5600 mg/m2, intravenous infusion during 4 h): 9/24; Dose well tolerated in unaffected volunteers [2]: 5600 mg/m2; Serious adverse effects or deaths associated with TEAEs [2]: No serious adverse effects (SAEs) or deaths
